# Assay results taken from BindingDB's records for doi:10.1021/jm00095a009 (Dupont Pharmaceuticals, 1992).
# Molecular target: Phospholipase A2 (Crotalus adamanteus)
# Test: Inhibitory activity against phospholipase A2 of Croatalus adamanteus
row,SMILES,IC50
1,OC(Cn1ccnc1)(c1ccc(F)cc1)c1ccc(-c2ccncc2)cc1 (stereo not drawn),> 1000 µM
2,Cc1ccc(C(O)(Cn2ccnc2)c2ccc(-c3ccncc3)cc2)cc1 (stereo not drawn),> 1000 µM
3,Oc1c(Cc2ccccc2)ccc2ccccc12,> 1000 µM
